Experiment [1] deals with T1, murine receptor (FDC-P1/ER cells) (Mus musculus, UniProt P14753).
T1 sequence (P14753 25-507): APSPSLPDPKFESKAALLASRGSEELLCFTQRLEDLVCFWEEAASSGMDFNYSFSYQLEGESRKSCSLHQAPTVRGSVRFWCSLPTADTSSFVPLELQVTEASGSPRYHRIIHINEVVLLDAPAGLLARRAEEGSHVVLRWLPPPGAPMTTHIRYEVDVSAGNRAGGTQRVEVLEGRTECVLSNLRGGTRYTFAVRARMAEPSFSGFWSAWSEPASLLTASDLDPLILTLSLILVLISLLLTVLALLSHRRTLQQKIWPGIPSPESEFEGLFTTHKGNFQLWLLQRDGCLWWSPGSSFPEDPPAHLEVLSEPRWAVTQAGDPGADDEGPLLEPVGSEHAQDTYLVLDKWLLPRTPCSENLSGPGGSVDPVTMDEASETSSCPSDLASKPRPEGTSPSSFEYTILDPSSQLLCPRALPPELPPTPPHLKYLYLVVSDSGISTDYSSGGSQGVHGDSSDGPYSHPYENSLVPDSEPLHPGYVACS
The experiment is described as follows: cell-based. The conditions noted are these: IA = inactive.
Method: Sample Preparation: Peptides were resuspended in DMSO as a 1×10^-2 M stock solution and serially diluted in 10-fold increments to generate the following 100×solutions:
Two μl of each stock dilution was added to a cell well as described below in a total volume of 200 μl to generate final concentrations as follows:
(§1) Cells are harvested and resuspended in fresh medium without growth factor (erytiropoietin) for 24 hr. Cells are counted and resuspended at a concentration of 800,000 cells/ml. Approximately forty thousand cells (50μ) are added to each well of a 96 well microtiter plate. Peptide is added to each well in triplicate. A standard dose response determination is run with each series of peptides. After a forty-two hr incubation (≈2 doubling), each well is pulsed with 1 μCi/well Thymidine. Cells are incubated an additional six hr at which time cells are harvested and counted to assess thymidine incorporation as an indicator of cell proliferation.

The target in experiment [2] is T2, truncated human erythropoietin receptor cell line (Homo sapiens, UniProt P19235).
T2 sequence (P19235 25-468 limits assumed): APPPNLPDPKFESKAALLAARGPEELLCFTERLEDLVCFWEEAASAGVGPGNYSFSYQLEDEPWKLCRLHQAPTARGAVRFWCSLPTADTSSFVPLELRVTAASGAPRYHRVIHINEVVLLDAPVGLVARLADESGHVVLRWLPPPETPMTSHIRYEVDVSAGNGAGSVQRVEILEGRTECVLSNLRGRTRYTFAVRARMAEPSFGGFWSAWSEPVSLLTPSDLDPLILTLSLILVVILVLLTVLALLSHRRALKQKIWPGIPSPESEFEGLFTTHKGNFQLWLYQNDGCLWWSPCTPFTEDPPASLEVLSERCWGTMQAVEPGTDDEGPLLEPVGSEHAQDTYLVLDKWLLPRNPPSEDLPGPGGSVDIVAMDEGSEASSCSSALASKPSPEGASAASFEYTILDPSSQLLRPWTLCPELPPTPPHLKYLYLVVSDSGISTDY
The experiment in a line: cell-based.
Method: as §1

The mark [3] stands for this setting: EPO-ED50 (μM), Tables 17-19, amount for half maximal level of EPO dependent proliferation.
Where [4] appears, read: EPO-ED50 (μM)* murine receptor, Tables 20-21.

The record followed here is patent US5773569A (Affymax Technologies N.V., priority 1995, dated 1998).

Structures are written as SMILES. pEC50: −log10 of the molar value. Residues, ends and D or L forms follow the SMILES beside them.

As usually defined, the EC50 is the concentration giving half of the maximal effect. The low end stands for a more potent agent, the high end for a less potent agent. One may read the pEC50 as the EC50 on a negative log10 scale, so that one unit is a factor of ten. Read a high pEC50 as a low EC50.

As for `CC(C)C[C@@H]1NC(=O)[C@@H]2CCCN2C(=O)CNC(=O)[C@H](Cc2ccccc2)NC(=O)[C@H](Cc2c[nH]cn2)NC(=O)[C@@H](NC(=O)[C@H](CO)NC(=O)[C@H](Cc2ccc(O)cc2)NC(=O)[C@@H](N)[C@@H](C)O)CSSC[C@@H](C(=O)N[C@@H](CCCCN)C(=O)N2CCC[C@H]2C(=O)N[C@@H](CCC(N)=O)C(=O)NCC(=O)NCC(N)=O)NC(=O)[C@H](C(C)C)NC(=O)[C@H](Cc2c[nH]c3ccccc23)NC(=O)[C@H]([C@@H](C)O)NC1=O` [RWJ 61597] (HELM PEPTIDE1{T.Y.S.C.H.F.G.P.L.T.W.V.C.K.P.Q.G.G.[am]}$PEPTIDE1,PEPTIDE1,4:R3-13:R3$$$V2.0), it took 2 µM to reach a half-maximal effect in experiment [1] (setting [3]) (EC50). In turn, `CC(C)C[C@@H]1NC(=O)[C@@H]2CCCN2C(=O)CNC(=O)[C@H](Cc2ccccc2)NC(=O)[C@H](Cc2c[nH]cn2)NC(=O)[C@@H](NC(=O)[C@H](CO)NC(=O)[C@H](Cc2ccc(O)cc2)NC(=O)[C@H](CCCCN)NC(=O)[C@H](CCCNC(=N)N)NC(=O)CNC(=O)[C@@H](N)CC(C)C)CSSC[C@@H](C(=O)N[C@@H](CCC(N)=O)C(=O)N2CCC[C@H]2C(=O)N[C@@H](C)C(=O)N[C@@H](CCCCN)C(=O)N[C@@H](CCCCN)C(=O)N[C@@H](CC(=O)O)C(N)=O)NC(=O)[C@H](C(C)C)NC(=O)[C@H](Cc2c[nH]c3ccccc23)NC(=O)[C@H]([C@@H](C)O)NC1=O` [RWJ 61757] (HELM PEPTIDE1{L.G.R.K.Y.S.C.H.F.G.P.L.T.W.V.C.Q.P.A.K.K.D.[am]}$PEPTIDE1,PEPTIDE1,7:R3-16:R3$$$V2.0) returned a concentration giving a half-maximal response (EC50) in experiment [1] (setting [4]) of 0.11 µM. The compound further showed a pEC50 in experiment [2] of 6.82.

With `CC(C)[C@@H]1NC(=O)[C@H](Cc2c[nH]c3ccccc23)NC(=O)[C@H]([C@@H](C)O)NC(=O)[C@H](C)NC(=O)[C@@H]2CCCN2C(=O)CNC(=O)[C@H](Cc2ccccc2)NC(=O)[C@H](Cc2c[nH]cn2)NC(=O)[C@@H](NC(=O)[C@H](CO)NC(=O)[C@H](Cc2ccc(O)cc2)NC(=O)[C@@H](NC(=O)CNC(=O)CN)[C@@H](C)O)CSSC[C@@H](C(=O)N[C@@H](CCCCN)C(=O)N2CCC[C@H]2C(=O)N[C@@H](CCC(N)=O)C(=O)NCC(=O)NCC(N)=O)NC1=O` [RWJ 61314] (HELM PEPTIDE1{G.G.T.Y.S.C.H.F.G.P.A.T.W.V.C.K.P.Q.G.G.[am]}$PEPTIDE1,PEPTIDE1,6:R3-15:R3$$$V2.0), the EC50 in experiment [1] (setting [3]) turned out to be 0.2 µM. For `CC(C)C[C@@H]1NC(=O)[C@@H]2CCCN2C(=O)CNC(=O)[C@H](Cc2ccccc2)NC(=O)[C@H](Cc2c[nH]cn2)NC(=O)[C@@H](NC(=O)[C@H](CO)NC(=O)[C@H](Cc2ccc(F)cc2)NC(=O)[C@@H](NC(=O)CNC(=O)CN)[C@@H](C)O)CSSC[C@@H](C(=O)N[C@@H](CCCCN)C(=O)N2CCC[C@H]2C(=O)N[C@@H](CCC(N)=O)C(=O)NCC(=O)NCC(N)=O)NC(=O)[C@H](C(C)C)NC(=O)[C@H](Cc2c[nH]c3ccccc23)NC(=O)[C@H]([C@@H](C)O)NC1=O` [RWJ 62020, GGTXSCHFGPLTWVCKPQGG] (HELM PEPTIDE1{G.G.T.[O=C([C@H](Cc1ccc(F)cc1)N[*:1])[*:2]].S.C.H.F.G.P.L.T.W.V.C.K.P.Q.G.G.[am]}$PEPTIDE1,PEPTIDE1,6:R3-15:R3$$$V2.0), in experiment [1] (setting [4]), the midpoint of the response, the EC50, lay at 1 µM. In experiment [2], the negative-log EC50 (pEC50) was 7.00. In experiment [1] (setting [3]), `CC(C)C[C@@H]1NC(=O)[C@@H]2CCCN2C(=O)CNC(=O)[C@H](Cc2ccccc2)NC(=O)[C@H](Cc2c[nH]cn2)NC(=O)[C@@H](NC(=O)[C@H](CO)NC(=O)[C@@H](N)Cc2ccc(O)cc2)CSSC[C@@H](C(=O)N[C@@H](CCCCN)C(=O)N2CCC[C@H]2C(N)=O)NC(=O)[C@H](C(C)C)NC(=O)[C@H](Cc2c[nH]c3ccccc23)NC(=O)[C@H]([C@@H](C)O)NC1=O` [RWJ 61232] (HELM PEPTIDE1{Y.S.C.H.F.G.P.L.T.W.V.C.K.P.[am]}$PEPTIDE1,PEPTIDE1,3:R3-12:R3$$$V2.0) gave an EC50 of 20 µM. `CSCC[C@@H]1NC(=O)[C@H](CCCNC(=N)N)NC(=O)[C@@H](NC(=O)[C@H](CC(C)C)NC(=O)[C@H](Cc2ccc(O)cc2)NC(=O)[C@H](CCC(=O)O)NC(=O)CNC(=O)CN)CSSC[C@@H](C(=O)N[C@H](C(=O)N2CCC[C@H]2C(=O)N[C@H](C(=O)NCC(=O)NCC(N)=O)C(C)C)[C@@H](C)O)NC(=O)[C@H](C(C)C)NC(=O)[C@H](Cc2c[nH]c3ccccc23)NC(=O)[C@H]([C@@H](C)O)NC(=O)[C@H](CCSC)NC(=O)[C@@H]2CCCN2C(=O)CNC1=O` [RWJ 61719] (HELM PEPTIDE1{G.G.E.Y.L.C.R.M.G.P.M.T.W.V.C.T.P.V.G.G.[am]}$PEPTIDE1,PEPTIDE1,6:R3-15:R3$$$V2.0) returned an EC50 in experiment [1] (setting [3]) of 9 µM. This EC50 lies about 2.2-fold lower than the previous one. The same measure, in the same setting: next, `CC(C)C[C@@H]1NC(=O)[C@@H]2CCCN2C(=O)CNC(=O)[C@H](Cc2ccccc2)NC(=O)[C@H](Cc2c[nH]cn2)NC(=O)[C@@H](NC(=O)[C@H](CO)NC(=O)[C@@H](N)Cc2ccc(O)cc2)CSSC[C@@H](C(=O)N[C@@H](CCCCN)C(N)=O)NC(=O)[C@H](C(C)C)NC(=O)[C@H](Cc2c[nH]c3ccccc23)NC(=O)[C@H]([C@@H](C)O)NC1=O` [RWJ 61279] (HELM PEPTIDE1{Y.S.C.H.F.G.P.L.T.W.V.C.K.[am]}$PEPTIDE1,PEPTIDE1,3:R3-12:R3$$$V2.0): 3 µM; `CC(C)C[C@@H]1NC(=O)[C@@H]2CCCN2C(=O)CNC(=O)[C@H](Cc2ccccc2)NC(=O)[C@H](Cc2c[nH]cn2)NC(=O)[C@@H](NC(=O)[C@@H](N)Cc2ccc(O)cc2)CSSC[C@@H](C(N)=O)NC(=O)[C@H](C(C)C)NC(=O)[C@H](Cc2c[nH]c3ccccc23)NC(=O)[C@H]([C@@H](C)O)NC1=O` [RWJ 61513] (HELM PEPTIDE1{Y.C.H.F.G.P.L.T.W.V.C.[am]}$PEPTIDE1,PEPTIDE1,2:R3-11:R3$$$V2.0): 2 µM. Consider `CC(C)C[C@@H]1NC(=O)[C@H](C)NC(=O)CNC(=O)[C@H](Cc2ccccc2)NC(=O)[C@H](Cc2c[nH]cn2)NC(=O)[C@@H](NC(=O)[C@H](CO)NC(=O)[C@H](Cc2ccc(O)cc2)NC(=O)[C@@H](NC(=O)CNC(=O)CN)[C@@H](C)O)CSSC[C@@H](C(=O)N[C@@H](CCCCN)C(=O)N2CCC[C@H]2C(=O)N[C@@H](CCC(N)=O)C(=O)NCC(=O)NCC(N)=O)NC(=O)[C@H](C(C)C)NC(=O)[C@H](Cc2c[nH]c3ccccc23)NC(=O)[C@H]([C@@H](C)O)NC1=O` [RWJ 61277] (HELM PEPTIDE1{G.G.T.Y.S.C.H.F.G.A.L.T.W.V.C.K.P.Q.G.G.[am]}$PEPTIDE1,PEPTIDE1,6:R3-15:R3$$$V2.0), for which the EC50 in experiment [1] (setting [3]) is 0.1 µM. `CC(C)C[C@@H]1NC(=O)[C@@H]2CCCN2C(=O)CNC(=O)[C@H](Cc2ccccc2)NC(=O)[C@H](Cc2c[nH]cn2)NC(=O)[C@@H](NC(=O)[C@H](CO)NC(=O)[C@H](Cc2ccc(O)cc2)NC(=O)[C@@H](N)[C@@H](C)O)CSSC[C@@H](C(=O)N[C@@H](CCCCN)C(=O)N2CCC[C@H]2C(=O)N[C@@H](CCC(N)=O)C(N)=O)NC(=O)[C@H](C(C)C)NC(=O)[C@H](Cc2c[nH]c3ccccc23)NC(=O)[C@H]([C@@H](C)O)NC1=O` [RWJ 61230] (HELM PEPTIDE1{T.Y.S.C.H.F.G.P.L.T.W.V.C.K.P.Q.[am]}$PEPTIDE1,PEPTIDE1,4:R3-13:R3$$$V2.0) showed an EC50 in experiment [1] (setting [3]) of 2 µM.
